Source: US11466070B2, “Signalling system” (AUTOLUS LIMITED, priority 2016, dated 2022)

System: BW5 T-cells
Test: Activation of TetCAR-expressing BW5 T-cells challenged with SupT1 cells expressing CD33, with increasing tetracycline
Assay type: cell-based
Details: TetCAR (anti-CD33) BW5 T-cells challenged with SupT1 cells expressing CD33
Excerpt: A bicistronic construct was expressed in BW5 T cells as a single transcript which self-cleaves at the 2A site to yield a signalling component which comprises TiP fused via a flexible linker to the endodomain of CD3-Zeta; and a receptor component which comprises a CD33 recognizing scFv, a spacer derived from the Fc domain of IgG1, a CD4 derived transmembrane and intracellular domain; and TetR (FIG. 6a). A control was also expressed which was identical except that TiP was absent from the signalling component (FIG. 6b).
The BW5 T-cells were challenged with wild-type SupT1 cells or SupT1 cells engineered to express CD33 in the absence of tetracycline or in the presence of increasing concentrations of tetracycline.
Control TetCAR which lacks the TiP domain was also transduced into BW5. Once again, these T-cells were challenged with wild-type SupT1 cells or SupT1 cells engineered to express CD33 in the absence or in the presence of increasing concentration of Tetracycline.

CN(C)[C@@H]1C(O)=C(C(N)=O)C(=O)[C@@]2(O)C(O)=C3C(=O)c4c(O)cccc4[C@@](C)(O)[C@H]3C[C@@H]12 [tetracycline, reference compound]
concentration of tetracycline at which activation is fully inhibited: 100 nM
